Test results as given in a melting point compilation (Tetko et al.; mined from patent text by program, amines drawn as free bases though some values may be those of a salt).

SMILES	melting point [°C]
OCCCCc1ccc(OCc2coc(/C=C/c3ccccc3)n2)cc1	90 to 91
CC1(C)CCC(C)(C)c2cc3c(=O)ccoc3cc21	202
COc1ccc(CC2c3cc(O)c(OC)cc3CCN2CC2CC2)cc1O (single isomer, unassigned; (+))	70 to 81
CCCCN(Cc1c(O)ccc2ccccc12)Cc1c(O)ccc2ccccc12	130 to 131
CNC1CC=C(c2c[nH]c3ccc(NC(=N)c4cccs4)cc23)CC1 (configuration not stated)	167 to 169
CC(=O)NC(n1ccnc1)C(Cl)(Cl)CCl (configuration not stated)	151 to 154
O=C1NCC(c2ccccc2)CCC1Br (configuration not stated)	218 to 220
FC(F)Sc1nnc(-c2cccs2)s1	63 to 64
CC(C)C[C@H](NC(=O)N1CCOCC1)C(=O)N[C@@H](CCc1ccccc1)C(=O)c1oc(-c2ccccc2)nc1-c1ccccc1	83 to 85
c1ccc(COc2c(-c3ccccc3)n[nH]c2-c2ccccc2)cc1	152
CCc1noc(-c2ncn(-c3cccc(Oc4ccc(Cl)cc4)c3)c2COC)n1	68 to 70
N=C(NO)c1ccc(Cl)nc1	185 to 186
CN(CCc1ccc(NS(C)(=O)=O)cc1)Cc1ccc2cc(NS(C)(=O)=O)ccc2n1	165 to 166
O=C(Nc1ccc(Cl)cc1)NC1N=C(c2ccccc2)c2ccccc2-n2cnnc21 (configuration not stated)	294 to 296
O=C(c1ccccc1)C1CNC(=S)C1 (configuration not stated)	110 to 112
C#Cc1cccc(Oc2ccc([N+](=O)[O-])c([N+](=O)[O-])c2)c1	68 to 69
COc1ccc(C(N)CC(=O)O)cc1OC (configuration not stated)	208 to 210
CC(C)CC(CO)NC(=O)c1ccccc1SSc1ccccc1C(=O)NC(CO)CC(C)C (configuration not stated)	195 to 196
COCNC(=O)OC(C(=O)OC)P(C)(C)=O (configuration not stated)	101
N=C(N)NCCCc1nccs1	160 to 163

SMILES	melting point [°C]
CCOC(=O)NCCCCc1ccccc1	60 to 61
CCOC(=O)c1ccc2nc(NC(C)=O)n(S(=O)(=O)N(C)C)c2c1	155 to 157
Clc1nc(-c2ccccc2)nc2c1Cc1ccccc1O2	168 to 170
COc1cc(N)cc(N)c1	79 to 80
CCOC(=O)c1cccc(NC(=O)N[C@@H]2N=C(c3ccccc3)c3ccccc3N(C)C2=O)c1	140 to 142
O=[N+]([O-])c1ccc(O)cc1OCCO	167
CC(=O)C1Oc2cc3c(cc2O1)=NC(F)(F)N=3	> 220
COc1ccc(CNc2c(C)c(C)c3c(c2C)C(c2ccc(C)cc2)C(C)(C)O3)cc1 (configuration not stated)	97 to 98
O=C(NC(=O)c1c(F)cccc1F)Nc1cc(Cl)c(OCC(F)(F)F)cc1F	201 to 202
COC(=O)c1c(C)[nH]c(-c2ccncn2)c1C(=O)OC	210 to 211
NS(=O)(=O)CCC(O)COCc1ccccc1 (configuration not stated)	94 to 98
CCOCc1cc(COc2cc(CCC(=O)O)n(-c3ccccc3)n2)cc(Oc2ncc(C(F)(F)F)cc2Cl)c1	124 to 128
COC(=O)c1ncccc1N	139 to 146
CCOC(=O)c1cn(-c2cc3ccccc3cn2)cn1	161 to 162
CN(C=O)c1c2oc3ccccc3c2nn1C	135 to 138
CC1CC(C)CC2(C1)OC(N)=NC2=O (configuration not stated)	276 to 281
CC(C)(C)N(O)C(=O)C1CCC(C2CCCCC2)CC1 (configuration not stated)	119 to 120
CNc1cc(O)c(OCCO)cc1[N+](=O)[O-]	210
O=P(Cc1ccc2ccccc2c1-c1c(CP(=O)(c2ccc(F)cc2)c2ccc(F)cc2)ccc2ccccc12)(c1ccc(F)cc1)c1ccc(F)cc1	211 to 214
OC(c1ccc(C(F)(F)F)cc1)c1ccc(C(F)(F)F)cc1	80

The next lines start with the values.

melting point [°C]	SMILES
105 to 107	COc1cc2ccccc2cc1NC(=O)N1CCN(c2cc(C)cc(C)c2)CC1
198 to 201	CC1CN(c2cc3c(cc2F)c(=O)c(C(=O)O)c2n3C(C)S2)CCN1C (configuration not stated)
157 to 159	COC(=O)c1cc2ccc3c(c2c(-c2ccc4c(c2)OCO4)c1C(=O)OC)OCO3
95 to 96	C#CCON=C(CCC)C1=C(O)CC(c2ccc(C(=O)SC)cc2)CC1=O (configuration not stated)
207 to 209	CC(=O)c1ccc(NS(=O)(=O)c2sc3ccc(Cl)cc3c2C)c(S(C)(=O)=O)c1
107 to 112	O=C1c2cc(F)ccc2OCC1C(=O)C(F)(F)F (configuration not stated)
171 to 172	COc1ccc(C(CC(=O)Nc2ncccc2C)N2C(=O)c3ccccc3C2=O)cc1OC (configuration not stated)
165 to 166	COc1ccc(Cn2nc(-c3ccc(SC)cc3)c(-c3ccc(F)cc3)cc2=O)cc1
123 to 124	COC(=O)C(Cc1c[nH]c2ccccc12)NC(=O)c1ccc2c(c1)OCO2 (configuration not stated)
159 to 161	CS(=O)(=O)Nc1nc(-c2ccc(NS(C)(=O)=O)c(Sc3ccc(F)cc3F)c2)cs1
196 to 198	COc1cc(-n2ccc(C)n2)ccc1C(=O)N1Cc2ccc(CN(C)C)n2Cc2ccccc21
142 to 143	CC(=O)Nc1cccc(OCc2ccccc2)c1C
159 to 160	CC(=O)NCc1c(C)cc(CN2CCN(c3ccccc3)CC2)cc1C
155 to 157	Cn1c(C(=O)O)c(-c2ccc(F)cc2)c2ccn(C)c2c1=O
123 to 125	CCOC(=O)c1cc2cc(CCNS(=O)(=O)c3ccc(Cl)cc3)ccc2o1
70 to 72	O=C1NCCc2ccc(OCCCCN3CCN(c4cccc5c4CCC5)CC3)nc2N1

melting point [°C]	SMILES
192 to 194	CC(C)n1c(C=O)c(-c2ccc(F)cc2)c(-c2ccccc2)c1C(=O)NCCc1cccnc1
163 to 164	O=C(O)C[C@@H](Oc1c(Br)cc(-c2c3ccccc3c(Br)c3sc4ccccc4c23)cc1Br)C(=O)O
213 to 214	Cc1cccc(Cl)c1NC(=O)/C=C1\SCC(=O)N1c1ccccc1
187 to 188	O=C(NCCO)c1cccc(-c2cccc3nn(Cc4cccc(F)c4)cc23)c1
208 to 210	Brc1ccc(-c2nc3n(c2-c2ccc(Br)cc2)CCS3)cc1
132 to 136	O=C(C(=Cc1ccc(Cl)cc1)c1ccc(Cl)cc1)c1ccc(O)cc1
270 to 274	Cc1cc(-c2ccc(O)cc2)cc2ccc(=O)[nH]c12
196 to 198	COc1cc(N2CCCC2)ncc1NC(=O)c1cc2cc(F)ccc2n1Cc1cccc(F)c1
109 to 111	CC1(C)Oc2ccc(C#N)cc2C(NC(=O)C(N)c2ccccc2)C1O (configuration not stated)
174 to 175	CN(O)C(=O)c1cccc2c1[nH]c1c3cc(Br)ccc3oc21
142	CCCCC(C(=O)N1CCCCC1)c1ccc(C(=O)O)cc1 (configuration not stated)
163 to 164	C[C@H](c1ccccc1)N1C(=O)N(Cc2ccccc2)[C@@H]2C(=O)OC[C@@H]21
170 to 173	O=C(Nc1cccc2c(NN3C(=O)CCC3=O)ccnc12)c1c(Cl)cccc1Cl
189 to 191	CCCc1nc2c(N)nc3ccc(-c4cccc(CN)c4)cc3c2s1
143 to 144	CCOC(=O)CCc1cn(Cc2ccc(O)cc2)nc1O
126 to 127	COCOCc1cccc(-c2ccc(C(=O)O)cc2)c1
